In patent publication US10022308B2, “Wipe and methods for improving skin health” (Kimberly-Clark Worldwide, Inc., priority 2003, dated 2018):

Key:
[1] = system: Lactobacillus acidophilus (ATCC #:314); assay: Adhesion assay for Lactobacillus acidophilus on synthetic skin substrate; assay type: cell-based; settings: 50 μl of 10% botanical stock in TSB + 50 μl bacteria, 3 h at 33° C. or 37° C., VITRO-SKIN, AlamarBlue
Procedure: The protocols for testing the ability of botanical compounds to elicit any of these desired effects are set forth in the Examples. In general, the ability of a botanical compound to affect the adherence of an organism to skin is determined by comparing the adherence of the organism to skin in the presence of the botanical compound, to the adherence of the organism to skin in the absence of the botanical compound. If the amount of adherence in the presence of the botanical compound is 150% or greater than the amount of adherence in the absence of the botanical compound, then the botanical compound is an adherence promoter for that organism. […]
(§1) Results are given in Table 1, which gives the percent adherence to the skin of P. mirabilis, S. epidermidis, P. aeruginosa, L. acidophilus, and C. albicans for the various botanical compound samples, relative to the control. The percentage is based on the number of cells that adhered to the skin for the botanical samples as compared to the number of cells that adhered to the skin in the control, as determined by the AlamarBlue® levels. […]
The next day, the optical density (650 nm) of the Lactobacilli broth culture was read. […] AlamarBlue® levels were read (emission levels read at 590 nm) in an Ascent plate reader (excitation level of 544 nm) at 2 and 3 hours. […]

[2] = system: P. aeruginosa (ATCC #27853); assay: Adhesion assay for P. aeruginosa on synthetic skin substrate; assay type: cell-based, Pseudomonas aeruginosa; settings: 50 μl of 10% botanical stock in TSB + 50 μl bacteria, 3 h room temperature, VITRO-SKIN, AlamarBlue
Procedure: (§2) The protocols for testing the ability of botanical compounds to elicit any of these desired effects are set forth in the Examples. In general, the ability of a botanical compound to affect the adherence of an organism to skin is determined by comparing the adherence of the organism to skin in the presence of the botanical compound, to the adherence of the organism to skin in the absence of the botanical compound. If the amount of adherence in the presence of the botanical compound is 150% or greater than the amount of adherence in the absence of the botanical compound, then the botanical compound is an adherence promoter for that organism. If the amount of adherence in the presence of the botanical compound is 50% or less than the amount of adherence in the absence of the botanical compound, then the botanical compound is an anti-adherent for that organism.
(§3) Each of the botanical compounds listed in Table 1 was screened to measure the effect of the compound on the adhesion of P. mirabilis, S. epidermidis, or P. aeruginosa to the skin. […]
(§4) The next day, the optical density (650 nm) of the TSB culture was read. […] AlamarBlue® levels were read (emission levels read at 590 nm) in an Ascent plate reader (excitation level of 544 nm) at 1 and 2 hours. When not being read, the plate was incubated at 37° C. with a lid. […]

[3] = system: S. epidermidis (ATCC #12228); assay: Adhesion assay for S. epidermidis on synthetic skin substrate; assay type: cell-based, Staphylococcus epidermidis; settings: 50 μl of 10% botanical stock in TSB + 50 μl bacteria, 3 h room temperature, VITRO-SKIN, AlamarBlue
Procedure: as §2, §3, §4

[4] = system: P. mirabilis (ATCC #29906); assay: Adhesion assay for P. mirabilis on synthetic skin substrate; assay type: cell-based, Proteus mirabilis; settings: 50 μl of 10% botanical stock in TSB + 50 μl bacteria, 3 h room temperature, VITRO-SKIN, AlamarBlue; >100% more cells adhered than control
Procedure: as §2, §3, §4

[5] = system: C. albicans (ATCC #10231); assay: Adhesion assay for Candida albicans on synthetic skin substrate; assay type: cell-based; settings: 50 μl of 10% botanical stock in TSB + 50 μl yeast, 3 h at 33° C., VITRO-SKIN, AlamarBlue
Procedure: as §2, §1
The next day, the optical density (650 nm) of the SDB culture was read. […]

CCCC(O)CO (centres unmarked) [Hydrolite-5]
percent adherence to the skin of L. acidophilus (LA) relative to the control [1]: 169.66%
percent adherence to the skin of P. aeruginosa (PA) relative to the control [2]: 5.1%
percent adherence to the skin of S. epidermidis (SE) relative to the control [3]: 141.5%
percent adherence to the skin of P. mirabilis (PM) relative to the control [4]: 9.2%
percent adherence to the skin of C. albicans (CA) relative to the control [5]: 3.9%
